The values that follow come from paper PMC11054274, “Dual Antitubercular and Antileishmanial Profiles of Quinoxaline Di-N-Oxides Containing an Amino Acidic Side Chain” (Pharmaceuticals, 2024).

Like-named read-outs stand apart in the source and are kept apart here.

The subject of data set [1] is Leishmania amazonensis amastigotes. Kind of data set: Intracellular amastigote assay in J774 macrophages, L. amazonensis. It is filed as cell-based. The note with it: for L. amazonensis amastigote selectivity index (SI): SI = CC50 (J774 macrophages)/IC50. As for the experimental part: (§1) We performed an intracellular amastigote assay on L. amazonensis and L. donovani according to a fluorometric method reported by us. To carry out the in vitro macrophage infections, 5 × 10^4 cells were cultured in RPMI-1640 medium and then were infected with 5 × 10^5 promastigotes. In the L. donovani assays, the plates were incubated for 48 h at 37 °C, while in the L. amazonensis assays, they were incubated at 33 °C for the first 24 h and then the temperature was increased to 37 °C for the next 24 h. After, the culture medium was removed and the cells were washed with buffered RPMI-HEPES at pH 7.4 several times in order to eliminate the non-internalized promastigotes. A total of 100 µL of fresh medium tempered at 37 °C was added to the infected cells, which then were exposed to 100 µL of the test compounds in RPMI-1640 at different concentrations (100, 50, 25, 12.5, 6.25, 3.12, 1.56 and 0.78 µg/mL in a final volume of 200 µL) for 48 h at 37 °C. The culture medium was removed by centrifugation at 3500 rpm for 5 min (Centrifuge 5403 Eppendorf) and a lysis solution (0.02% sodium dodecyl sulfate in RPMI-HEPES) was added. After 20 min, the treated cells were harvested (centrifugation at 3500 rpm for 5 min at 4 °C) and the supernatants were replaced by 200 μL of fresh Schneider’s culture medium. The plates were then incubated at 26 °C for another 3 days to allow for the transformation of viable amastigotes into promastigotes and proliferation. Afterwards, 20 μL/well of 2.5 mM resazurin was added and incubated for another 3 h. Finally, URF was measured and IC50 was estimated as described above. All tests were carried out in triplicate. Miltefosine was used as the reference drug.

For data set [2], the system named is Leishmania amazonensis promastigotes. Briefly: Promastigote susceptibility assay (resazurin), L. amazonensis. Format: cell-based. The conditions noted are these: for L. amazonensis promastigote selectivity index (SI): SI = CC50 (J774 macrophages)/IC50. As for the experimental part: (§2) The following species of Leishmania were used: L. donovani (MHOM/IN/80/DD8), which was purchased (ATCC, Manassas, VA, USA), and L. amazonensis (MHOM/Br/79/Maria), which was kindly provided by Prof. Alfredo Toraño (Instituto de Salud Carlos III, Madrid, Spain). Promastigotes were cultured in Schneider’s Insect Medium supplemented with 10% heat-inactivated Fetal Bovine Serum (FBS) (SIGMA-Merck, Madrid, Spain) and 1000 U/L of penicillin plus 100 mg/L of streptomycin in 25 mL culture flasks at 26 °C.
(§3) The activity of the compounds on Leishmania promastigotes was performed according to the method previously reported by us. Briefly, promastigotes (2.5 × 10^5 parasites/well) were cultured in 96-well plastic plates. The compounds were dissolved in dimethylsulfoxide (DMSO). Serial dilutions at 1:2 of the test compounds in fresh culture medium were performed (100, 50, 25, 12.5, 6.25, 3.12, 1.56 and 0.78 µg/mL) in a final volume of 200 µL; the solutions were then added to the parasite suspension. After an incubation period of 48 h at 26 °C, a volume of 20 μL of 2.5 mM resazurin solution in PBS was added and the plates were incubated for 3 h under the same conditions. Finally, the Relative Fluorescence Unit (RFU) (535ex–590em nm wavelength) was determined in a fluorimeter (Infinite 200 Tecan i-Control). Growth inhibition (%) was calculated by 100—[(RFU treated wells—RFU signal-to-noise)/(RFU untreated—RFU signal-to-noise) × 100]. All tests were carried out in triplicate and the IC50 was calculated by probit analysis using SPSS 17.0 Statistics Software. Miltefosine (Sigma-Merck, Madrid, Spain) was used as the reference drug.
Background: Resazurin is reduced to fluorescent resorufin, in cell work by metabolically active cells.

The test system of data set [3] is Leishmania donovani amastigotes. Kind of data set: Intracellular amastigote assay in J774 macrophages, L. donovani. The conditions noted are these: for IC50: Table S3, intracellular amastigotes, 48 h. Format: cell-based. As to the method: as §1
For data set [4], the system named is Mycobacterium tuberculosis H37Rv. Kind of data set: In vitro activity against Mycobacterium tuberculosis H37Rv, microdilution AlamarBlue broth assay (BacTiter-Glo alternative read-out). Format: cell-based. The note with it: Table S1, Mtb H37Rv; for IC50: read-out: IC50, antibacterial activity against Mtb H37Rv; for IC90: read-out: IC90, antibacterial activity against Mtb H37Rv. In general terms: Broth dilution looks for growth in wells or tubes with falling amounts of substance.

In data set [5] the test system is Leishmania donovani promastigotes. Kind of data set: Promastigote susceptibility assay (resazurin), L. donovani. Format: cell-based. The conditions noted are these: for IC50: Table S2, promastigotes, 48 h; for L. donovani promastigote selectivity index (SI): SI = CC50 (J774 macrophages)/IC50. As to the method: as §2, §3
Data set [6] concerns J774 murine macrophages. Kind of data set: Cytotoxicity assay on macrophages (resazurin). Format: cell-based. The note with it: 24 h exposure, read-out: Toxicity against J774 macrophages CC50. As to the method:
(§4) J774 murine macrophages were grown in RPMI-1640 medium (Sigma) supplemented with 10% heat-inactivated FBS (30 min at 56 °C) (SIGMA-Merck), penicillin G (100 U/mL) and streptomycin (100 µg/mL). For the experiments, cells in the pre-confluence phase were harvested with trypsin. Cell cultures were maintained at 37 °C in a humidified environment with 5% CO2.
(§5) Cell viability was evaluated using a modification with resazurin of the colorimetric method described previously. J774 macrophages were seeded (5 × 10^4 cells/well) in 96-well flat-bottom microplates with 100 µL of RPMI-1640 medium. The cells were allowed to adhere for 4 h at 37 °C in 5% CO2, then different concentrations of the test compounds in 100 µL of the medium were added and exposed for 24 h. Growth controls were also included. To evaluate cell viability, 20 µL of a 2.5 mM resazurin solution was added and the plates were returned to the incubator for another 3 h. The reduction in resazurin was determined by measuring the fluorescence intensity (excitation wavelength, 535 nm; emission wavelength, 590 nm). Each concentration was assayed three times. The medium and controls were used in each test as blanks. The cytotoxic effect of the compounds was defined as the 50% reduction in cell viability of treated culture cells with respect to the untreated culture (CC50).

Data set [7] in a line: Cytotoxicity assay on macrophages (resazurin). Format: cell-based, murine. The note with it: mouse, J774 macrophages, 24 h exposure, read-out: Toxicity against J774 macrophages CC50. As to the method:
as §4, §5

The mark [8] stands for this setting: Table S3, intracellular amastigotes, 48 h, read-out: L. amazonensis IC50 (amastigote).
Setting [9] is: Table S2, promastigotes, 48 h, read-out: L. amazonensis IC50 (promastigote).
The mark [10] stands for this setting: read-out: IC50 against L. amazonensis amastigotes.
[11] abbreviates: Leishmania amazonensis, Table S2, promastigotes, 48 h, read-out: L. amazonensis IC50 (promastigote).
[12] abbreviates: Leishmania amazonensis, J774, Table S3, intracellular amastigotes, 48 h, read-out: L. amazonensis IC50 (amastigote).

By IC50 is commonly meant the midpoint of a concentration-inhibition curve. A word on the IC90: it is the concentration needed for an effect of 90%. As for `COC(=O)CNC(=O)c1c(-c2cccc(Cl)c2)[n+]([O-])c2cc(OC)ccc2[n+]1[O-]` [Compound 4g, N-(6-Methoxy-1,4-dioxide-3-(3-chlorophenyl)quinoxaline-2-carbonyl)glycine methyl ester], the IC50 in data set [1] (setting [8]) stood at 23.2 ± 4.1 µM; in data set [2] (setting [9]), 112 ± 13.7 µM; in data set [3], 77.5 ± 6.2 µM; in data set [4] it was 50 µM; in data set [5] it was 40 ± 6.7 µM. The IC90 in data set [4] was determined as 71.9 µM.
By CC50 is commonly meant the concentration that lowers cell viability or growth by half. For the compound `COC(=O)CNC(=O)c1c(-c2ccccc2C)[n+]([O-])c2cc(OC)ccc2[n+]1[O-]` [Compound 4k, N-(6-Methoxy-1,4-dioxide-3-(2-methylphenyl)quinoxaline-2-carbonyl)glycine methyl ester], the 50% inhibitory concentration (IC50) in data set [1] (setting [10]) turned out to be 7.2 µM; in data set [2] (setting [9]), 117 ± 14.3 µM; in data set [3], 72.2 ± 18.6 µM; in data set [4], 25.9 µM; in data set [5] it was 23.9 ± 2.2 µM. Besides, the CC50 in data set [6] (Table S2) worked out at 330 ± 75.5 µM. Also, the IC90 in data set [4] came out at 44.6 µM.
In the case of `COC(=O)CNC(=O)c1c(-c2ccc(F)cc2)[n+]([O-])c2cc(C)ccc2[n+]1[O-]` [Compound 4m, N-(6-Methyl-1,4-dioxide-3-(4-fluorophenyl)-quinoxaline-2-carbonyl)glycine methyl ester], the 50% inhibitory concentration (IC50) is 74.4 µM in data set [1] (setting [10]); 62.8 ± 1.6 µM in data set [2] (setting [9]); 285 ± 115 µM in data set [3]; 18.3 µM in data set [4]; 84.8 ± 8.9 µM in data set [5]. In addition, the CC50 in data set [6] (Table S2) and in data set [6] (Table S3) was 454 µM throughout. Moreover, in data set [4], the IC90 was 36.5 µM.
In the case of `COc1ccc2c(c1)[n+]([O-])c(-c1ccc(C(F)(F)F)cc1)c(C(=O)NCC(=O)O)[n+]2[O-]` [Compound 5h, 2-((Carboxymethyl)carbamoyl)-6-methoxy-3-(4-(trifluoromethyl)phenyl)quinoxaline 1,4-dioxide], the CC50 at 24 h in data set [7] (Table S2) was 1830 µM. In addition, the figures for the half-inhibitory concentration (IC50) in data set [2] (setting [11]), in data set [4] (Mycobacterium tuberculosis) and in data set [5] (Leishmania donovani) were > 229 µM, 16.4 µM and > 229 µM, respectively. Also, the “L. amazonensis promastigote selectivity index (SI)” value in data set [2] is on record as > 8. Further, the IC90 in data set [4] (Mycobacterium tuberculosis) was 22 µM.
Regarding `Cc1ccc2c(c1)[n+]([O-])c(-c1ccc(F)cc1)c(C(=O)NCC(=O)O)[n+]2[O-]` [Compound 5m, 2-((Carboxymethyl)carbamoyl)-3-(4-fluorophenyl)-6-methylquinoxaline 1,4-dioxide], in data set [7] (Table S2), the CC50 at 24 h came to 8090 µM. Moreover, the half-maximal inhibitory concentration (IC50) is > 270 µM in data set [2] (setting [11]), 17.2 µM in data set [4] (Mycobacterium tuberculosis) and > 270 µM in data set [5] (Leishmania donovani). Further, in data set [2], the “L. amazonensis promastigote selectivity index (SI)” value is > 30. In data set [4] (Mycobacterium tuberculosis), the 90% effect concentration (IC90) came out at 35.1 µM.
As for `COc1ccc2c(c1)[n+]([O-])c(-c1ccc(C)cc1)c(C(=O)O)[n+]2[O-]` [Compound 6, 2-Carboxy-6-methoxy-3-(4-tolyl)quinoxaline 1,4-dioxide], the concentration for half-maximal inhibition (IC50) in data set [1] (setting [12]) stood at 31.9 ± 13.2 µM; in data set [2] (setting [11]), 20.5 ± 2.5 µM; in data set [4] (Mycobacterium tuberculosis), 45 µM; in data set [5] (Leishmania donovani), 6.2 ± 0.2 µM. Moreover, the “L. amazonensis amastigote selectivity index (SI)” value in data set [1] stood at 13.3. Moreover, the CC50 at 24 h in data set [7] (Table S2) was 424 µM. For the same compound, the “L. amazonensis promastigote selectivity index (SI)” value in data set [2] came out at 20.7. For the same compound, the 90% effect concentration (IC90) in data set [4] (Mycobacterium tuberculosis) worked out at 76.4 µM. Besides, the “L. donovani promastigote selectivity index (SI)” value in data set [5] was determined as 68.4.
Consider `CCCCCCCCCCCCCCCCOP(=O)([O-])OCC[N+](C)(C)C` [Miltefosine, reference compound], for which the half-maximal inhibitory concentration (IC50) turned out to be 47.6 ± 7.4 µM in data set [1] (setting [12]); 136 µM in data set [1] (Leishmania amazonensis, J774, read-out: IC50 against L. amazonensis amastigotes); 47.9 µM in data set [2] (Leishmania amazonensis, read-out: IC50 against L. amazonensis (promastigote)); 7.1 µM in data set [3] (Leishmania donovani, J774); 0.2 ± 0.02 µM in data set [5] (Leishmania donovani). Besides, the figures for the “L. amazonensis amastigote selectivity index (SI)” value in data set [1] and in data set [1] (listed as miltefosine) were 2.9 and 2.87, respectively. Further, the CC50 at 24 h in data set [7] (Table S2) was 136 ± 10.3 µM; in data set [7] (Table S3) it was 136 µM. Further, the “L. amazonensis promastigote selectivity index (SI)” value in data set [2] is on record as 2.8. Also, in data set [3] (SI = CC50 (J774 macrophages)/IC50), the “L. donovani amastigote selectivity index (SI)” value was 19.1. Also, the “L. donovani promastigote selectivity index (SI)” value in data set [5] is recorded as 680.5.
As for “N-(1,4-Dioxide-3-((4-fluorophenyl)quinoxaline-2-carbonyl)glycine methyl ester [Compound 4d]”, the IC50 amounted to 9.8 µM in data set [1] (setting [10]); 125 ± 1.43 µM in data set [2] (setting [9]); 234 ± 5.9 µM in data set [3]; 28.6 µM in data set [4]; 165 ± 10.2 µM in data set [5]. Moreover, the CC50 in data set [6] (Table S2) and in data set [6] (Table S3) was 539 µM in each case. Moreover, the IC90 in data set [4] is 47.7 µM.
Consider “N-(6-Methoxy-1,4-dioxide-3-(4-florophenyl)quinoxaline-2-carbonyl)glycine methyl ester [Compound 4i]”, for which the IC50 in data set [1] (setting [8]) came out at 12.9 ± 1.7 µM; in data set [2] (setting [9]) it was 117 ± 8 µM; in data set [3], 71 ± 11 µM; in data set [4] it was 47.2 µM; in data set [5] it was 46.9 ± 14.2 µM. For the same compound, the half-maximal cytotoxic concentration (CC50) in data set [6] (Table S2) came to 379 ± 49.9 µM. The concentration for an effect of 90% (IC90) in data set [4] is 66.5 µM.
In the case of “N-(6-Methoxy-1,4-dioxide-3-(4-trifloromethylphenyl)quinoxaline-2-carbonyl)glycine methyl ester [Compound 4h]”, the IC50 in data set [1] (setting [8]) was 20.9 ± 4 µM; in data set [2] (setting [9]) it was 122 ± 9.9 µM; in data set [3] it was 39.5 ± 7.5 µM; in data set [4], 8.46 µM; in data set [5], 25.3 ± 1.55 µM. Also, the CC50 in data set [6] (Table S2) and in data set [6] (Table S3) was 554 µM throughout. Further, the 90% effect concentration (IC90) in data set [4] was 12.4 µM.
